{"source": "patent US20110195924A1", "about": "“Methods of Inhibiting the Interaction Between S100P and the Receptor for Advanced Glycation End-Products” (priority 2008, published 2011)", "key": {"MPanc96 tumors": {"system": "MPanc96 tumors", "test": "MPanc96 pancreatic tumor growth and survival in mice (analogs)", "format": "in vivo", "conditions": "mouse, in vivo", "experimental": "(§1) Various cromolyn-based analogs were developed. The effects of the analogs on binding of S100P with RAGE were evaluated for the analogs using a sandwich ELISA. The effectiveness of the analogs to block cancer cell proliferatin and increase apoptosis in vitro were analyzed with and without cisplatin, 5-flurouracil and gemcitabine by MTS and FACS analysis. We also examined the ability of the analogs to inhibit S100P activation of NFkB signaling in cancer cells in vitro and in vivo. Finally, the effects of the novel analogs on tumor growth in vivo was evaluated. One analog, C5OH is shown below:\nAnimals were implanted with MPanc96 cells, a gemcitabine resistant model of pancreatic cancer, and then treated with gemcitabine, C5OH, or the combination. […] Noteworthy, the addition of the hydroxyl group to the carbon chain in C5 allows easy modifications of this molecule. The hydroxyl can be substituted with fluoride that can be labeled for in vivo PET imaging. This hydroxyl can also be used to develop a pro-drug form of C5 by attaching other components with an ester bond."}, "MPanc-96 cells": {"system": "MPanc-96 cells", "test": "MPanc-96 cell apoptosis by flow cytometry, alone or with gemcitabine", "format": "cell-based, Human", "conditions": "100 and 1000 nM, 72 hours", "experimental": "FIG. 11 compares the effects of cromolyn and C5 alone and in combination with gemcitabine on MPanc-96 cell apoptosis. MPanc-96 cells were treated with cromolyn or C5 (100 and 1000 nM) with (+) or without (−) gemcitabine (10 μM). Apoptosis was analyzed after 72 hours by flow cytometry."}, "NFkB activity": {"system": "NFkB activity", "test": "S100P induced NFkB activity in cancer cells (analogs)", "format": "cell-based", "experimental": "as §1, with “evaluated.” for “evaluated. One analog, C5OH is shown below:”"}, "S100P binding with RAGE": {"target": "T1, S100P binding with RAGE (Homo sapiens, UniProt P25815)", "T1 construct": "full-length human S100P cDNA (NM_005980) was cloned into the pTrcHis2 vector; His; made in house; host or cells: bacteria (S100P)", "T1 sequence (P25815 1-95)": "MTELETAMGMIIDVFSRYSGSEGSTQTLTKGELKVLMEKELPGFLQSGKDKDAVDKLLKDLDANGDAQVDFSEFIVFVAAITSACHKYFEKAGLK", "test": "ELISA of S100P binding to RAGE (sRAGE coated plate)", "experimental": "After removing un-bound S100P by washing with detergent, the bound S100P and RAGE complex was quantified by adding HRP labeled antibody against S100P. *, P=0.04 C5 1 μM versus cromolyn 5 μM. Two-tailed two-sample (unpaired) Student's t-tests were used to determine P values.\nThe plate was washed and the amount of bound S100P was quantitated using anti-S100P antibody.\nThe binding of S100P to RAGE was determined using an ELISA assay. sRAGE was attached to the dish and recombinant S100P (50 ng) was added with or without the indicated concentrations of cromolyn analogs. The plate was washed and the amount of bound S100P was quantitated using anti-S100P antibody."}, "S100B with RAGE": {"target": "T2, S100B with RAGE (Homo sapiens, UniProt P04271)", "T2 sequence (P04271 1-92)": "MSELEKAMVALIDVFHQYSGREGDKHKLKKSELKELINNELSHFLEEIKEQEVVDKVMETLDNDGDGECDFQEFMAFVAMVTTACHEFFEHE", "test": "ELISA of S100B binding to RAGE (sRAGE coated plate)", "source_text": "After removing un-bound S100B by washing with detergent, bound S100B and RAGE complex was quantified by adding HRP labeled antibody against S100B."}, "BxPC-3 cells": {"system": "BxPC-3 cells", "test": "BxPC-3 cell viability, alone or with gemcitabine", "format": "cell-based", "conditions": "72 hours", "experimental": "BxPC-3 cells were plated at 1.0×10^3 cells/well and treated with 0 μM, 1 μM, 10 μM, and 100 μM of cromolyn or C5 alone or in combination with gemcitabine 1 μM and cell viability was analyzed after 72 hours. Two-tailed two-sample (unpaired) Student's t-tests were used to determine P values. […] BxPC-3 cells were plated at 1.0×10^3 cells/well and treated with either 100 μM of cromolyn or 1 μM C5 alone or in combination with gemcitabine (1 μM) and cell viability was analyzed after 72 hours."}, "pancreatic cancer cells": {"system": "pancreatic cancer cells", "test": "Apoptosis of pancreatic cancer cells with cromolyn analogs and cytotoxic drugs", "format": "cell-based", "experimental": "as §1\nIn this in vitro study, pancreatic cancer cells were treated with gemcitabine alone or in the presence of cromolyn analogs. The cromolyn analogs themselves have very little effect on the rates of cellular apoptosis, supporting their absence of general toxicity. However, all cromolyn analogs increased the killing of pancreatic cancer cells by gemcitabine."}, "NFκB activity": {"system": "NFκB activity", "test": "S100P stimulated NFκB luciferase reporter in MPanc-96 cells", "format": "cell-based, Human", "conditions": "S100P 100 nM, 5 hours", "experimental": "MPanc-96 pancreatic cancer cell lines stably expressing an NFκB luciferase reporter were examined for the effects of S100P, cromolyn and C5. Cells were plated at 5.0×10^3 cells/well, treated for 5 hours with 100 nM of S100P, with or without cromolyn and C5 (1 μM), and activity of a luciferase gene driven by the NFkB promoter was analyzed. P=0.05 C5 versus cromolyn. Two-tailed two-sample (unpaired) Student's t-tests were used to determine P values."}}, "note": "Entries after “also recorded” stand apart in the source; their conditions may differ."}
{"molecule": "O=C([O-])c1cc(=O)c2c(OCCCCCOc3cccc4oc(C(=O)[O-])cc(=O)c34)cccc2o1.[Na+].[Na+]", "note": "[C5, disodium 1,5-bis(2-carboxychromon-5-yloxy)pentane]", "values": [{"measurement": "inhibition of tumor growth and survival in vivo, relative to cromolyn", "setting": "MPanc96 tumors", "result": "superior to cromolyn"}, {"measurement": "apoptosis in combination with gemcitabine, relative to cromolyn with gemcitabine", "setting": "MPanc-96 cells; MPanc-96, gemcitabine 10 μM", "result": "induced more apoptosis than cromolyn"}, {"measurement": "MPanc-96 cell viability", "setting": "MPanc-96 cells; alone and in conjunction with gemcitabine 10 μM", "result": "inhibit"}, {"measurement": "inhibition of S100P induced NFkB activity relative to cromolyn", "setting": "NFkB activity", "result": "more potently and effectively than did cromolyn"}, {"measurement": "blocking of the interaction / binding of S100P with RAGE", "setting": "S100P binding with RAGE", "result": "blocked"}, {"measurement": "concentration achieving the same level of S100P inhibition", "setting": "S100P binding with RAGE; FIG. 7", "result": 100, "unit": "nM"}, {"measurement": "potency in blocking S100P binding to RAGE relative to cromolyn or C5", "setting": "S100P binding with RAGE; analogs at 10-fold lower concentration than cromolyn", "result": "nearly equally potent and more efficient than cromolyn; also recorded: better than cromolyn"}, {"measurement": "interaction of S100B with RAGE", "setting": "S100B with RAGE", "result": "inhibit"}, {"measurement": "inhibiting cell viability in combination with gemcitabine, relative to cromolyn", "setting": "BxPC-3 cells; BxPC-3, 1-100 μM with gemcitabine 1 μM", "result": "more potent and efficacious"}, {"measurement": "blocking cell growth alone, relative to cromolyn", "setting": "BxPC-3 cells; BxPC-3, 10 or 100 μM", "result": "more potent and more efficacious than cromolyn"}, {"measurement": "concentration giving the same level of cell reduction in combination with gemcitabine", "setting": "BxPC-3 cells; BxPC-3, gemcitabine 1 μM, FIG. 10", "result": 1, "unit": "µM"}, {"measurement": "BxPC-3 cell viability", "setting": "BxPC-3 cells; alone and in conjunction with gemcitabine 1 μM", "result": "inhibit"}, {"measurement": "cancer cell apoptosis in response to various cytoxic treatments, relative to cromolyn", "setting": "pancreatic cancer cells", "result": "at lesser concentrations and to a greater extent than did cromolyn"}, {"measurement": "killing of pancreatic cancer cells by gemcitabine", "setting": "pancreatic cancer cells; with gemcitabine, C5 and C5OH at 10-fold lower concentration than cromolyn", "result": "worked equally well"}, {"measurement": "reduction of S100P induced NFκB activity relative to cromolyn at the same dose", "setting": "NFκB activity; 1 μM", "result": "much better than cromolyn"}, {"measurement": "NFκB activity in pancreatic cancer cells in vitro", "setting": "NFκB activity; compound 1 μM", "result": "inhibit"}]}
